From the METLIN SMRT retention time set (Domingo-Almenara et al. 2019) come the findings set out here.

The nature of this data set: gradient 5% acetonitrile 3 min, to 50% in 2 min, to 85% in 15 min, held 3 min, 100 µL/min. The settings on record: column: Zorbax Extend-C18 2.1 x 50 mm; eluents: water / acetonitrile, 0.1% formic acid. An outline of the steps: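 Retention times of pure standards were taken from adduct peaks that were selected by computer and manually inspected. Over 3 months, mixtures of ~100 molecules were run by HPLC–quadrupole time-of-flight mass spectrometry in positive and negative ionization mode. The Zorbax Extend-C18 column (2.1 × 50 mm, 1.8 μm) ran at 100 μL/min in water and acetonitrile, each containing 0.1% formic acid, with 40 μL dead volume and 900 μL dwell volume.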
Compound `CCC(C)NC(=O)Cn1c(=O)n(CCCCC(=O)NC2CCCC2)c(=O)c2ccccc21` (stereo unspecified) showed an RP-LC retention time of 736 s.

The compound `O=C(COc1ccc(F)cc1)NCC1CCOCC1` had an RP-LC retention time of 677 s.

`Cc1csc(NC(=O)C2CCCN(S(=O)(=O)c3c[nH]c(C(=O)N4CCCC4)c3)C2)n1` (stereo unspecified) yielded an RP-LC retention time of 714 s.

Regarding `O=C1CCCCC(CNC(=O)c2ccsc2)N1` (stereo unspecified), the RP-LC retention time turned out to be 619 s.

In the case of `O=C(NCc1n[nH]c(=O)c2ccccc12)c1ccc([N+](=O)[O-])o1`, the RP-LC retention time was 606 s.

The compound `Cc1ccc(-c2nnc(N3CCC(C(=O)NC(C)c4ccc(F)cc4)CC3)o2)cc1` (stereo unspecified) registered an RP-LC retention time of 892 s.

The compound `Cc1ccc(CCN2CC(C(=O)N3CCN(c4cc(=O)n(C)c(=O)n4C)CC3)CC2=O)cc1` (stereo unspecified) returned an RP-LC retention time of 656 s.

The compound `CCOCCOC1CCN(S(=O)(=O)c2ccc(OC)cc2)CC1` gave an RP-LC retention time of 831 s.

`CCc1cccc(NC(=O)C2CCCN(S(=O)(=O)c3cn(C(C)C)cn3)C2)c1` (stereo unspecified) yielded an RP-LC retention time of 893 s.

For the compound `Clc1ccc(Cl)c(-c2ccc(CNCCN3CCNCC3)o2)c1`, the RP-LC retention time worked out at 603 s.

`N[C@H]1CCN(O)C1=O` yielded an RP-LC retention time of 627 s.

`COc1ccccc1OCC(=O)NCCCS(=O)(=O)N1CCN(c2ccccc2)CC1`: the RP-LC retention time was 796 s.

In the case of `O=C(Nc1nc(-c2ccccc2)cs1)c1ccc(S(=O)(=O)N2CCCCC2)cc1`, the RP-LC retention time is 1150 s.

`CC(C)NC(=O)Cn1cccc1-c1nc(-c2ccc3c(c2)OCO3)no1` yielded an RP-LC retention time of 925 s.

In turn, `COc1ccc(S(=O)(=O)N2CC=C(c3cn(C)c4ncccc34)CC2)cc1Cl` showed an RP-LC retention time of 1010 s.

In turn, `O=C(N1CC(Oc2ccccc2-c2nc(C3CC3)no2)C1)C1(c2ccccc2)CC1` had an RP-LC retention time of 665 s.

`Nc1nnc(CS(=O)(=O)c2ccccc2)o1` showed an RP-LC retention time of 568 s.

`CCOc1ccc2ncc(S(=O)(=O)c3ccc(OC)cc3)c(N3CCOCC3)c2c1` came in with an RP-LC retention time of 919 s.

With `CCC(C(=O)Nc1ccc2ncnc(N3CCCC3)c2c1)c1ccccc1` (stereo unspecified), the RP-LC retention time is 703 s.

With `CCOc1ccc(CCNC(=O)c2nc(CCS(=O)(=O)c3ccccc3)no2)cc1OCC`, the RP-LC retention time is 900 s.

Compound `CCNc1nc(NC(C)C)nc(-n2cnc(SC)n2)n1` displayed an RP-LC retention time of 897 s.

Take `O=C(Cc1ccsc1)N1CCC(c2nncn2-c2ccccc2)CC1`: the RP-LC retention time was 689 s.

`Cc1ccc(-c2ccc(S(=O)(=O)N3CCCC3)cc2)cc1` had an RP-LC retention time of 1070 s.

On to `COc1cccc(S(=O)(=O)NCc2cccnc2-c2cccc(C)c2)c1`, for which the RP-LC retention time was 718 s.

The compound `CCN1CCN(c2ccc(-c3nc(-c4ccccc4)no3)cn2)CC1` registered an RP-LC retention time of 675 s.

On to `CCn1ccc2sc(C)c(C(=O)NCc3ccc(Cl)cc3)c2c1=O`, for which the RP-LC retention time stood at 891 s.

Turning to `Cc1cccc(NC(=O)Nc2ccc3c(c2)CCN3S(=O)(=O)c2ccccc2)c1`, the RP-LC retention time is 994 s.

As for `O=c1c(=O)n(-c2cccc(Cl)c2)ccn1Cc1nc(-c2ccccc2)no1`, the RP-LC retention time came out at 875 s.

Compound `COc1ccccc1NC(=O)Cn1nc2c(Oc3cccc(Cl)c3)nccn2c1=O` gave an RP-LC retention time of 900 s.

For the compound `COc1ccc(-c2noc(C3CCCN3C(=O)c3ccc(C)cc3)n2)cc1` (stereo unspecified), the RP-LC retention time turned out to be 1010 s.

`Cc1ccc(Nc2c(-c3ccccc3O)nc3ncccn23)c(C)c1`: the RP-LC retention time is 744 s.

On to `COc1ccc(-c2nc(-c3ccc4oc(C)nc4c3)no2)c(C)c1`, for which the RP-LC retention time worked out at 1170 s.

The compound `CNCc1ccc(-c2[nH]c3cc(F)cc4c3c2CCNC4=O)cc1` came in with an RP-LC retention time of 642 s.

In turn, `CCOc1ccc2nc(Nc3ncc4c(n3)CC(c3ccc(C)cc3)CC4=O)nc(C)c2c1` (stereo unspecified) yielded an RP-LC retention time of 886 s.

Consider `COc1ccc(-c2cn3c(CC(=O)Nc4ccc(Cl)cn4)csc3n2)cc1OC`, for which the RP-LC retention time was 715 s.

The compound `CNC(=O)C1CCCN(c2nc3ncn(CC(=O)Nc4ccc5c(c4)OCO5)c(=O)c3s2)C1` (stereo unspecified) gave an RP-LC retention time of 1110 s.

For `COc1cccc(S(=O)(=O)N2C[C@@H]3C[C@H](NC(=O)c4cccs4)[C@H]2C3)c1`, the RP-LC retention time is 854 s.

`Cc1cc(C(=O)N2CCC(c3noc(-c4ccncc4)n3)C2)nn1C` (stereo unspecified) returned an RP-LC retention time of 661 s.

The compound `CCC1(O)CCOC2(CCN(C(=O)CC3CCCC3)CC2)C1` (stereo unspecified) returned an RP-LC retention time of 748 s.

`CCC(=O)N1CCc2cc(N3CC(C(=O)NCc4cccc(Cl)c4)CC3=O)ccc21` (stereo unspecified) displayed an RP-LC retention time of 776 s.

`Cc1ccc(CNC(=O)C2(C)Oc3cccnc3NC2=O)cc1` (stereo unspecified) had an RP-LC retention time of 702 s.

In turn, `Cc1nc(-c2ccc(F)cc2)sc1C(=O)N(C)C` gave an RP-LC retention time of 767 s.

Regarding `Cc1cc(NC(=O)c2c(O)c3cccnc3n(-c3ccccc3)c2=O)ccc1F`, the RP-LC retention time worked out at 1160 s.

`O=C(CN1CCN(C(=O)Nc2ccc(Cl)cc2)CC1=O)NC1CCCCC1` displayed an RP-LC retention time of 724 s.

In turn, `CC(C)n1c(N2CCN(C(=O)COc3ccccc3)CC2)cc(=O)n(C(C)C)c1=O` displayed an RP-LC retention time of 855 s.

`Cc1noc(C)c1S(=O)(=O)N1CCc2c(c(-c3nnc(-c4ccc(F)cc4)o3)nn2C)C1` came in with an RP-LC retention time of 910 s.

`O=C(C1CCN(c2ccc(Sc3cccc(F)c3)nn2)CC1)N1CCN(c2ccccn2)CC1` came in with an RP-LC retention time of 626 s.

`CCS(=O)(=O)N1CCC(Cc2nncn2Cc2ccccc2)C1` (stereo unspecified): the RP-LC retention time worked out at 643 s.

In the case of `O=C(Nc1nccnc1C(=O)NCCCN1CCOCC1)c1ccccc1`, the RP-LC retention time was found to be 551 s.

With `CCCC1c2nccn2CCCN1C(=O)c1ccoc1C` (stereo unspecified), the RP-LC retention time amounted to 592 s.

`CC(C)NC(=O)C1CCN(Cc2cc3ccccc3n2Cc2ccccc2)CC1` had an RP-LC retention time of 710 s.

As for `C=CCNC(=O)C1CCCN(C(=O)Nc2ccc(NC(=O)Nc3ccc(C)c(C)c3)cc2)C1` (stereo unspecified), the RP-LC retention time was 766 s.

Take `Cc1ccc(CNC(=O)c2ccc3c(c2)CNCCO3)cc1`: the RP-LC retention time was 617 s.

`Cc1cc(N2CCN(C(=O)c3ccco3)CC2)n2nc(C)c(-c3ccc(Cl)cc3)c2n1`: the RP-LC retention time is 838 s.

With `CCOC(=O)c1ccccc1NC(=O)N(Cc1cccs1)C1CCN(CC)CC1`, the RP-LC retention time was 756 s.

`COc1ccc(Cl)cc1NS(=O)(=O)c1cn(C(C)C)c2ncccc12` yielded an RP-LC retention time of 972 s.

For `O=C(CCSc1ccccc1)N1CCN(CC(F)(F)F)CC1`, the RP-LC retention time is 870 s.

Compound `COC(=O)c1c(NCCC(C)C)c2cccc(Cl)c2[nH]c1=O` gave an RP-LC retention time of 847 s.

Consider `COCCCNC(=O)C1CCC(=O)N(c2cc(OC)c(OC)c(OC)c2)C1c1ccc(OC)cc1` (stereo unspecified), for which the RP-LC retention time was found to be 572 s.

As to `O=C(NCc1cnoc1-c1ccc(F)cc1)c1ccccc1F`, the RP-LC retention time is 866 s.

For `Cc1nc(Cn2cccc2C(=O)Nc2ccc(C)c(Cl)c2)no1`, the RP-LC retention time was 954 s.

As for `O=C1CC(c2noc(Cc3ccc(F)cc3)n2)CN1c1ccc(F)cc1` (stereo unspecified), the RP-LC retention time was found to be 933 s.

Compound `O=C(C1COc2ccccc2O1)N(CCc1cccs1)Cc1ccco1` (stereo unspecified) displayed an RP-LC retention time of 1020 s.

In the case of `CCn1nnc2ccc(-c3noc(-c4ccc(C)cc4)n3)cc21`, the RP-LC retention time amounted to 1140 s.

In turn, `Cc1nc(C)c(C(=O)N2CCC(CC(=O)N3CCOCC3)C2)s1` (stereo unspecified) displayed an RP-LC retention time of 684 s.

As for `COc1ccc2nc3oc(C(=O)NCCN4CCN(C)CC4)cc3cc2c1`, the RP-LC retention time worked out at 597 s.

Consider `O=C(c1c(F)cccc1F)N1CCN=C1N1CCCCC1`, for which the RP-LC retention time was determined as 623 s.

As for `CCN1CCN(C(=O)c2ccc(-c3nnc4ccc(NC(=O)C5CC5)cn34)cc2)CC1`, the RP-LC retention time amounted to 587 s.

In the case of `CN(C)CCOc1ccccc1Cc1ccccc1`, the RP-LC retention time was 762 s.

On to `CCOC(=O)c1c(C)[nH]c(C(=O)N2CCCC(C(=O)NCCN3CCN(CC)CC3)C2)c1C` (stereo unspecified), for which the RP-LC retention time was found to be 567 s.

`Cc1cc(=O)n(CC(=O)N2CCN(c3ccc(F)cc3)CC2)c(N2CCOCC2)n1` yielded an RP-LC retention time of 674 s.

`O=c1n(CCOc2ccc(F)cc2)nc2c(S(=O)(=O)N3CCCC3)cccn12` registered an RP-LC retention time of 824 s.

For the compound `CCC(=O)NCc1cnn(-c2ccc(C(=O)Nc3ccc4c(c3)OCCO4)cc2)c1`, the RP-LC retention time turned out to be 702 s.

Regarding `O=C(Cn1c(-c2cccs2)cc2cc(Cl)ccc21)NCCCN1CCOCC1`, the RP-LC retention time worked out at 726 s.

The compound `COCC(=O)NC(Cc1ccccc1)c1nc2ccccc2n1Cc1ccccc1F` (stereo unspecified) yielded an RP-LC retention time of 769 s.

With `COc1ccc(NS(=O)(=O)c2cc(-c3[nH]ncc3C(=O)N3CCCC3)oc2C)cc1`, the RP-LC retention time turned out to be 676 s.

As for `O=C(NCCc1ccsc1)Nc1ccccc1C(F)(F)F`, the RP-LC retention time came out at 842 s.

Compound `COc1ccc(OC)c(NC(=O)N2CCC(OC3CCN(S(C)(=O)=O)CC3)CC2)c1` gave an RP-LC retention time of 751 s.

As for `COc1ccc(-c2nnc(-c3cccc(S(=O)(=O)N(C)C)c3)o2)cc1OC`, the RP-LC retention time is 816 s.

Compound `Cn1c(=O)n(C)c2cc(S(=O)(=O)c3ccccc3)c(NC(=O)Cc3cccc(F)c3)cc21` had an RP-LC retention time of 799 s.

Compound `O=C(NCCc1cccs1)c1cc2n(n1)CCCN(Cc1ccc(F)cc1)C2=O` registered an RP-LC retention time of 868 s.
